{
  "source": "ChEMBL document CHEMBL5696442",
  "about": "“Discovery of type II inhibitors of TGFβ-activated kinase 1 (TAK1) and mitogen-activated protein kinase kinase kinase kinase 2 (MAP4K2)” (J Med Chem, 2015)",
  "key": {"[1]": {"target": "T1, Interleukin-1 receptor-associated kinase 4 (Homo sapiens) (UniProt Q9NWZ3)", "T1 sequence (whole entry)": "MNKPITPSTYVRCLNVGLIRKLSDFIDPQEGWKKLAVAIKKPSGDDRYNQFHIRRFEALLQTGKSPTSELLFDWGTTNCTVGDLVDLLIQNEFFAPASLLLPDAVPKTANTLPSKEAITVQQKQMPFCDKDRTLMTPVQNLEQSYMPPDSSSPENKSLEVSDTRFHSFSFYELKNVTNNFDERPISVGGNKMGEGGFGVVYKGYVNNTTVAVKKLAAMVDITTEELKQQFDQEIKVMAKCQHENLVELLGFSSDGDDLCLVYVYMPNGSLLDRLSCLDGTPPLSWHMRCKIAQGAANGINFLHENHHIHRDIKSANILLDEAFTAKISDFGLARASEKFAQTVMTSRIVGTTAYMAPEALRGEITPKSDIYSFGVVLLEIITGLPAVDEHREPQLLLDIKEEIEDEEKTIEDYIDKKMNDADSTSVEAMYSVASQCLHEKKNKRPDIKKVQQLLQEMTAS", "assay": "Inhibition of IRAK4 Lys2 labeling site in human Huh-7 cell lysate at 1 uM by KiNativ Profiling analysis relative to control", "type": "subcellular"}, "[2]": {"target": "Mitogen-activated protein kinase kinase kinase 11 (Homo sapiens) (UniProt Q16584)", "sequence (Q16584 whole entry, looked up)": "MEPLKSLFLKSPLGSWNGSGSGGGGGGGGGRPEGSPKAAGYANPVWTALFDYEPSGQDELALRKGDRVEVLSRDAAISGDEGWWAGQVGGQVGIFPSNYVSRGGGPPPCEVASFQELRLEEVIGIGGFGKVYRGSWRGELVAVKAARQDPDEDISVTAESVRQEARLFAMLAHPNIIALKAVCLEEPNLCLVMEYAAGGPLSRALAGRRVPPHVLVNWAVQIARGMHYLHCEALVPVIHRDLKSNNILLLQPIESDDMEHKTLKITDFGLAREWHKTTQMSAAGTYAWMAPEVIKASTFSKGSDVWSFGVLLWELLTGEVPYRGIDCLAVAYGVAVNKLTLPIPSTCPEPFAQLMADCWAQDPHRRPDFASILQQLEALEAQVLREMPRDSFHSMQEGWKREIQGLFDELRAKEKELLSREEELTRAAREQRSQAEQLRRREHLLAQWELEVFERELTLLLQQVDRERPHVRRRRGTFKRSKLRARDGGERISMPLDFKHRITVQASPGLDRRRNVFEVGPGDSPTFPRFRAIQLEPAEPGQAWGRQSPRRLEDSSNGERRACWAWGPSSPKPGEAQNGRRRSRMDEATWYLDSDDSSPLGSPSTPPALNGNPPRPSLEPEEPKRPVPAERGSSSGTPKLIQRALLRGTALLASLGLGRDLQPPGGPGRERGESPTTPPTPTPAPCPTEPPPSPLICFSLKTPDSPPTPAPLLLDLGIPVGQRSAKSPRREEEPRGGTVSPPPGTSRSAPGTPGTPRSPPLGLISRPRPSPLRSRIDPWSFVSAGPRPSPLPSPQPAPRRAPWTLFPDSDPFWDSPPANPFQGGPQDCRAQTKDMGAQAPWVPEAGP", "assay": "Inhibition of MLK3 K2 labeling site in human Huh-7 cells at 1 uM by KiNativ Profiling analysis relative to control", "type": "cell-based"}, "[3]": {"target": "Bone morphogenetic protein receptor type-1B (Homo sapiens) (UniProt O00238)", "sequence (O00238 whole entry)": "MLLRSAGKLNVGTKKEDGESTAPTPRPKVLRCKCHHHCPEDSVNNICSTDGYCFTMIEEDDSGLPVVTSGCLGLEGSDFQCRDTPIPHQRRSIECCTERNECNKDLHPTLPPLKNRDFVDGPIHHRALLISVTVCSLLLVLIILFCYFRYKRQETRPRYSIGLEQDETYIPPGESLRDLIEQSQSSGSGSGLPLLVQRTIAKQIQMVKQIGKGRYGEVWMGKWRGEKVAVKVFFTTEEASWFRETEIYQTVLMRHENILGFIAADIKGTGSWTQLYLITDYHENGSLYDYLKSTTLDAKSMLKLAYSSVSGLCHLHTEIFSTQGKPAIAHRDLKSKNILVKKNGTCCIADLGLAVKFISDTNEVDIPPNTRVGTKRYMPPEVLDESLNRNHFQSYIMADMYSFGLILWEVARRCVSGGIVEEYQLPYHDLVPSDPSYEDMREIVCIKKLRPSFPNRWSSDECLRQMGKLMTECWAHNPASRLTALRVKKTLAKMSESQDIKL", "assay": "Inhibition of BMPR1B (unknown origin) at 10 uM by Ambit Kinomescan binding assay"}, "[4]": {"target": "T2, Mitogen-activated protein kinase kinase kinase 15 (Homo sapiens) (UniProt Q6ZN16)", "T2 sequence (whole entry)": "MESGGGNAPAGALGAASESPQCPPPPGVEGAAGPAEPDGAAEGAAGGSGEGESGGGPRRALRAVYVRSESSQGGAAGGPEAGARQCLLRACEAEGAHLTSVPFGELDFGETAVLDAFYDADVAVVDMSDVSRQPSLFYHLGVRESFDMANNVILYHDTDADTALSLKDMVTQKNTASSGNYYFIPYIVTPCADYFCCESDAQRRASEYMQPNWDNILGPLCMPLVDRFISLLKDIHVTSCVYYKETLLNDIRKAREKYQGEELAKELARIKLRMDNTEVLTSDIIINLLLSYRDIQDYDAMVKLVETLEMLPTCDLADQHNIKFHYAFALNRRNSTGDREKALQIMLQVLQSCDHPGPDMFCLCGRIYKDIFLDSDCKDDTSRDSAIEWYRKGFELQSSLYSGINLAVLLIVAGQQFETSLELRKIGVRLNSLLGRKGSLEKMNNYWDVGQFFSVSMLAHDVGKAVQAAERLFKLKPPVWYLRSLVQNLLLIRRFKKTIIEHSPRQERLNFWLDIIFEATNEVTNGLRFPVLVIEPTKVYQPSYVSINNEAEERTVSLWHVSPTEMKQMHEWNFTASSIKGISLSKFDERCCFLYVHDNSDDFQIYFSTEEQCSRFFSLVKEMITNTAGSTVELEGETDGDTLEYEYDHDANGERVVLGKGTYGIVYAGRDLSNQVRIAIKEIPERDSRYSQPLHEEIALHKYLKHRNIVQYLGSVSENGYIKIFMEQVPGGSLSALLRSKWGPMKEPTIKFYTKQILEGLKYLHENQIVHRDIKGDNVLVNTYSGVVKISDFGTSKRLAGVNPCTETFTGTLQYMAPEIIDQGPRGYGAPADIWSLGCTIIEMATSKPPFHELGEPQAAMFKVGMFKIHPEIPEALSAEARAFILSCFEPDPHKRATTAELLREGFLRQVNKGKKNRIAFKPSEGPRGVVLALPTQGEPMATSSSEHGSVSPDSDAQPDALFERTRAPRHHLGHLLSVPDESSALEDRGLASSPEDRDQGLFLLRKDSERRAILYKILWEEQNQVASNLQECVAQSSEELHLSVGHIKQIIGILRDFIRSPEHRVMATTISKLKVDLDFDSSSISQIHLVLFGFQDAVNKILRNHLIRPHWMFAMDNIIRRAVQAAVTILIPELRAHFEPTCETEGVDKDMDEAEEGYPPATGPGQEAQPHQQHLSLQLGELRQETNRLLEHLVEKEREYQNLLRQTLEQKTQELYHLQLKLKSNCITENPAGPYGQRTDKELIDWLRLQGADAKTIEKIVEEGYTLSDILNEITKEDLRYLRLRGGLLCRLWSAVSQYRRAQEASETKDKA", "assay": "Inhibition of MAP3K15 Lys1 labeling site harbouring IAIKEIPERDSR in human A-375 cells at 0.05 uM by KiNativ Profiling analysis relative to control", "type": "cell-based"}, "[5]": {"target": "T3, Serine/threonine-protein kinase 3 (Homo sapiens) (UniProt Q13188)", "T3 sequence (whole entry)": "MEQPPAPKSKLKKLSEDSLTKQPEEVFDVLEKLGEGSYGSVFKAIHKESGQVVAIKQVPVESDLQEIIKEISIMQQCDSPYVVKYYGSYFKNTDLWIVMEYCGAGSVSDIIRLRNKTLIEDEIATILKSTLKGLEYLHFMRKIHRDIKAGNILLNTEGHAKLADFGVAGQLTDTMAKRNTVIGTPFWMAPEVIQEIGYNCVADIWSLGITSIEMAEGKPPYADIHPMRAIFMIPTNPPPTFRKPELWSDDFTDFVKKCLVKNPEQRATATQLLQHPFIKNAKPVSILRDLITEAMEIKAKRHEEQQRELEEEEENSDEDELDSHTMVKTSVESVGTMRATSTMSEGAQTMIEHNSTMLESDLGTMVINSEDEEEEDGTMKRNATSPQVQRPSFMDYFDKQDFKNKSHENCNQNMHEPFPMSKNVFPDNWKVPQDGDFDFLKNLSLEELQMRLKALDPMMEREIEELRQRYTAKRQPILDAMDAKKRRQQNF", "assay": "Inhibition of MST2 (unknown origin) at 10 uM by Ambit Kinomescan binding assay"}, "[6]": {"target": "Protein kinase C iota type (Homo sapiens) (UniProt P41743)", "sequence (P41743 whole entry)": "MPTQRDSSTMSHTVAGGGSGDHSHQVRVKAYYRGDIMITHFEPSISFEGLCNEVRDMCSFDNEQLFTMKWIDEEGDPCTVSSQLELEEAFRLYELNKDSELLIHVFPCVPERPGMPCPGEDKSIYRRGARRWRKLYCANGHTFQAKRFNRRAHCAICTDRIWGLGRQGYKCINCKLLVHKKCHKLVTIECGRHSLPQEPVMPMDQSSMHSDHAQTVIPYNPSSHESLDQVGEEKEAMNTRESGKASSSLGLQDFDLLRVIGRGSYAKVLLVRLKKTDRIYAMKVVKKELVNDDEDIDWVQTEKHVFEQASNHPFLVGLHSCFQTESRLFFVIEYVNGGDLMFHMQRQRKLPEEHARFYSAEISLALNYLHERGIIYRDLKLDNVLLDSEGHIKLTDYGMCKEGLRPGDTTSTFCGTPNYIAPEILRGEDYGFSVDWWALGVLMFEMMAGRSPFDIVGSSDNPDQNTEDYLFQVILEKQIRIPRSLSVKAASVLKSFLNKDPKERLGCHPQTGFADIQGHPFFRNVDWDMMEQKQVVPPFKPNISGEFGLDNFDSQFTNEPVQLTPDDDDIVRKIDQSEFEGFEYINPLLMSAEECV", "assay": "Inhibition of PRKCI (unknown origin) at 1 uM by Ambit Kinomescan binding assay relative to control; values are per cent of control"}, "[7]": {"target": "Mitogen-activated protein kinase kinase kinase 11 (Homo sapiens) (UniProt Q16584)", "assay": "Inhibition of MLK3 Lys2 labeling site in human A-375 cells at 0.05 uM by KiNativ Profiling analysis relative to control", "type": "cell-based"}},
  "note": "Activity calls are given as the source filed them. No cut-off for these calls is given here.",
  "data": [
    {"smiles": "CNc1cc(Oc2cc(C(=O)Nc3cc(N4CCN(C)CC4)cc(C(F)(F)F)c3)ccc2C)ncn1", "values": [
      {"measurement": "inhibition", "setting": "[1]", "result": 8.4, "unit": "%"}
    ]},
    {"smiles": "CCN1CCN(Cc2ccc(NC(=O)c3ccc(C)c(Oc4ccnc5[nH]ccc45)c3)cc2C(F)(F)F)CC1", "values": [
      {"measurement": "inhibition", "setting": "[2]", "result": -1.6, "unit": "%"},
      {"measurement": "inhibition", "setting": "[3]", "result": "inactive"},
      {"measurement": "inhibition", "setting": "[4]", "result": -3.3, "unit": "%"},
      {"measurement": "inhibition", "setting": "[5]", "result": "inactive"}
    ]},
    {"smiles": "CCN1CCN(Cc2ccc(NC(=O)c3ccc(C)c(/C=C/c4cnc5[nH]ccc5c4OC)c3)cc2C(F)(F)F)CC1", "values": [
      {"measurement": "residual activity", "setting": "[6]", "result": 100, "unit": "%"},
      {"measurement": "inhibition", "setting": "[7]", "result": 11.4, "unit": "%"}
    ]}
  ]
}
